Laboratory results reported in patent publication US20260226084A1, “DUAL RAF AND TUBULIN INHIBITORS AND METHODS OF USE THEREOF” (Deciphera Pharmaceuticals, LLC, priority 2023, published 2026).
Where two headings read alike, the source gives them in different places.

What was measured:
Porcine Brain Tubulin = biological target: T1, Porcine Brain Tubulin (Sus scrofa, UniProt P02550+P02554); test: Biochemical Tubulin Polymerization Assay
T1 construct: Porcine Brain Tubulin (T240); purchased Cytoskeleton, Inc T240; BK011P; host or cells: porcine brain (tissue-purified)

[1] = biological target: T2, B-Raf kinase (SEQ ID NO: 1) (Homo sapiens, UniProt P15056); test: Biochemical Assay for B-Raf (coupled pyruvate kinase/lactate dehydrogenase assay)
T2 construct: GST (N); purchased Sigma

MiaPaca-2 cells = test: MiaPaca-2 Cell Proliferation Assay; format: cell-based; conditions: Homo sapiens
Summary of the method: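 Viability was read as resazurin fluorescence (540 nm excitation, 600 nm emission) after 5–6 h with dye. Compounds were tested as serial dilutions in triplicate, with IC50 derived from the dose–response.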

HCT-116 cells = test: HCT-116 Cell Proliferation Assay; format: cell-based; conditions: Homo sapiens
Summary of the method: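 IC50 values come from resazurin fluorescence (540 nm excitation, 600 nm emission) added for 4 to 5 h after compound treatment. Treatment: serially diluted compound in triplicate on 375 HCT-116 cells per well in complete McCoy's 5A/10% FBS, 67 to 72 hours, 37 °C, 5% CO2.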

HPAF-II cells = test: HPAF-II Cell Proliferation Assay; format: cell-based; conditions: Homo sapiens, HPAF-II
Summary of the method: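 Viability read-out was resazurin fluorescence (540 nm excitation, 600 nm emission), developed 18–24 h after a 115–120 h compound exposure of 750 HPAF-II cells per well in MEM/10% FBS at 37 °C. Compound was tested as a serial dilution in triplicate, and IC50 values were calculated.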

[2] = biological target: T3, C-Raf kinase (SEQ ID NO: 2) (Homo sapiens, UniProt P04049, Y340D/Y341D); test: Biochemical Assay for C-Raf (coupled pyruvate kinase/lactate dehydrogenase assay)
T3 construct: C-Raf residues 306-end; Y340D, Y341D with; GST (N); purchased Sigma

Pa16c cells = test: Pa16c Cell Proliferation Assay; format: cell-based; conditions: Table 2, read-out: Inhibition of cell proliferation in Pa16c (IC50 class)
Summary of the method: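 Proliferation read-out: resazurin fluorescence (540 nm excitation, 600 nm emission) after an extra 18 to 24 h. Before that, compound dilution series (triplicate) stayed on 750 Pa16c cells/well in complete DMEM/10% FBS for 67 to 72 h at 37° C. IC50 values derived from the curves.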

[3] = Table 4, representative compounds from PCT/US2022/081242, read-out: Tubulin Biochem IC50
[4] = Table 4, representative compounds from PCT/US2022/081242, read-out: BRAF IC50
[5] = MIA PaCa-2, Table 4, MiaPaca-2 mutant KRAS pancreatic cancer cell line, read-out: MiaPaca-2 IC50
[6] = HCT-116, Table 4, HCT-116 mutant KRAS colorectal cancer cell line, read-out: HCT-116 IC50
[7] = Table 4, HPAF-II mutant KRAS pancreatic cancer cell line, read-out: HPAF-II IC50
[8] = Table 4, representative compounds from PCT/US2022/081242, read-out: CRAF IC50
[9] = Table 3, Tubulin Biochemical assay, read-out: Tubulin Biochem (IC50 class)
[10] = 1 mM ATP, read-out: BRAF (inhibition of biochemical activity, IC50)
[11] = Table 3, read-out: BRAF (IC50 class)
[12] = MIA PaCa-2, MiaPaca-2 cells, Table 2, read-out: Inhibition of cell proliferation in MiaPaca-2 (IC50 class)
[13] = MIA PaCa-2, Table 3, read-out: MiaPaca-2 (IC50 class)
[14] = HCT-116, HCT-116 cells, Table 2, read-out: Inhibition of cell proliferation in HCT-116 (IC50 class)
[15] = HCT-116, Table 3, read-out: HCT-116 (IC50 class)
[16] = HPAF-II cells, Table 2, read-out: Inhibition of cell proliferation in HPAF-II (IC50 class)
[17] = Table 3, read-out: HPAF-II (IC50 class)
[18] = 1 mM ATP, read-out: CRAF (inhibition of biochemical activity, IC50)
[19] = Table 3, read-out: CRAF (IC50 class)

T1 sequence (P02550 whole entry): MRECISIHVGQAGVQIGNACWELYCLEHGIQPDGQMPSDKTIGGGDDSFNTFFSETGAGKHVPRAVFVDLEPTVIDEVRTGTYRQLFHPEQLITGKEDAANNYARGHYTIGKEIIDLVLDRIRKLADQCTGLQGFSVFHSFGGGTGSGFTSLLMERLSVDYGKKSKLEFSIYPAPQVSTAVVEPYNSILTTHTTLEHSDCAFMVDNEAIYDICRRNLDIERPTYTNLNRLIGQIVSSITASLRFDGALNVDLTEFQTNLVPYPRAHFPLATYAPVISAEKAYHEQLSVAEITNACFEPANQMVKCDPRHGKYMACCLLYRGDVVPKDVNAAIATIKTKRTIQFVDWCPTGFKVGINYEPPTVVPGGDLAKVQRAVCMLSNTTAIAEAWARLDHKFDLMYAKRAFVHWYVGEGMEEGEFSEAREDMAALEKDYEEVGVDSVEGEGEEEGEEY
T1 sequence (P02554 whole entry): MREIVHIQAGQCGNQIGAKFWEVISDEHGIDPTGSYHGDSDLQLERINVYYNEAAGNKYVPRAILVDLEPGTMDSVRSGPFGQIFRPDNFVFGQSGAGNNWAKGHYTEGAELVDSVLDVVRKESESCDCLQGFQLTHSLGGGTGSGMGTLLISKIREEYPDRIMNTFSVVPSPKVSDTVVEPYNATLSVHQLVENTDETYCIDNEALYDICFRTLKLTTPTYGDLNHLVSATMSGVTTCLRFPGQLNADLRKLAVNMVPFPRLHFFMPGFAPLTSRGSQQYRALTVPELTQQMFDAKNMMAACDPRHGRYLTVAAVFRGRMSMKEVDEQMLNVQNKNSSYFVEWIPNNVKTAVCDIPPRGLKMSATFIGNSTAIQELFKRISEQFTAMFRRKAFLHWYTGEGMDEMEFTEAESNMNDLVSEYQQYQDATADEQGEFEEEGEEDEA
T2 sequence (P15056 416-766): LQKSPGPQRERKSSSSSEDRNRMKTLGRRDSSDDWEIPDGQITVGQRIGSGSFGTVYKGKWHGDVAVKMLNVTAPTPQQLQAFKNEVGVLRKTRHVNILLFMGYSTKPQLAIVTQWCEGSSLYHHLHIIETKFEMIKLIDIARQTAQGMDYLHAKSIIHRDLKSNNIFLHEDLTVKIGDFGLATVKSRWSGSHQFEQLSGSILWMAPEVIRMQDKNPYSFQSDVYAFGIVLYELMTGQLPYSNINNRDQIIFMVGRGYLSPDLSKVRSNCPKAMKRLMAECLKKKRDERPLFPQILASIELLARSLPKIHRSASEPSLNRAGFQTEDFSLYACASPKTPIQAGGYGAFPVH
T3 sequence (P04049 307-648 Y340D/Y341D): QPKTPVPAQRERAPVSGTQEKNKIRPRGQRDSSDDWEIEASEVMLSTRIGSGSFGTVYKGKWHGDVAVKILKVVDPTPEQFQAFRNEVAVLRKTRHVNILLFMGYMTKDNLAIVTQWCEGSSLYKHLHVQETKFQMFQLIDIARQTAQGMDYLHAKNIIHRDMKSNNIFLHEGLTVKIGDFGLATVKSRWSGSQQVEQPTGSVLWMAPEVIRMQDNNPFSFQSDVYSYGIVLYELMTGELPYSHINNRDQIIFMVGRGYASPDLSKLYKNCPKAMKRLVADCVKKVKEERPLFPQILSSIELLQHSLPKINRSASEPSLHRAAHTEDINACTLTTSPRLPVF

Row | SMILES | IC50 (Porcine Brain Tubulin; [3]) | IC50 [1, 4] | IC50 (MiaPaca-2 cells; [5]) | IC50 (HCT-116 cells; [6]) | IC50 (HPAF-II cells; [7]) | IC50 [2, 8] | IC50 (Porcine Brain Tubulin; [9]) | IC50 [1, 10] | IC50 [1, 11] | IC50 (MiaPaca-2 cells; [12]) | IC50 (MiaPaca-2 cells; [13]) | IC50 (Pa16c cells) | IC50 (HCT-116 cells; [14]) | IC50 (HCT-116 cells; [15]) | IC50 (HPAF-II cells; [16]) | IC50 (HPAF-II cells; [17]) | IC50 [2, 18] | IC50 [2, 19]
1 | Cc1ccc(NC(=O)c2ccnc(C3CC3)c2)cc1-c1ccnc(-c2ccnc(NC(=O)C3CC3)c2)c1 [reference compound] | > 100000 nM | < 100 nM | 1000 to 10000 nM | 500 to 1000 nM | 1000 to 10000 nM | < 100 nM |  |  |  |  |  |  |  |  |  |  |  | 
2 | Cc1ccc(NC(=O)c2cc(C(F)(F)F)cnn2)cc1-c1cc(N[C@H](C)CO)nc(-c2cn[nH]c2)c1 [Example 119] |  |  |  |  |  |  | < 3000 nM | < 100 nM | < 100 nM | < 100 nM | < 100 nM | < 100 nM | < 100 nM | < 100 nM | < 100 nM | < 100 nM | < 100 nM | < 100 nM
3 | Cc1ccc(NC(=O)c2cc(C(C)(C)F)cnn2)cc1-c1ccnc(-c2ccnc(NC(=O)C3CC3)c2)c1 [Example 59] |  |  |  |  |  |  | < 3000 nM | < 100 nM | < 100 nM | 100 to 500 nM | 100 to 500 nM | 100 to 500 nM | < 100 nM | < 100 nM | 100 to 500 nM | 100 to 500 nM | < 100 nM | < 100 nM
4 | Cc1ccc(NC(=O)c2cc(C(F)(F)F)cnn2)cc1-c1cc(N[C@H](C)CO)nc(-c2ccnc(NC(=O)C3CC3)c2)c1 [Example 45] |  |  |  |  |  |  | 3000 to 20000 nM | < 100 nM | < 100 nM | 100 to 500 nM | 100 to 500 nM | 100 to 500 nM | < 100 nM | < 100 nM | < 100 nM | < 100 nM | < 100 nM | < 100 nM
5 | Cc1ccc(NC(=O)c2ccnc(C(C)C)c2)cc1-c1ccnc(-c2ccnc(NC(=O)C3CC3)c2)c1 [reference compound] | > 100000 nM | < 100 nM |  | 1000 to 10000 nM | 100 to 500 nM | < 100 nM |  |  |  |  |  |  |  |  |  |  |  | 
6 | Cc1ccc(NC(=O)c2cc(C3CC3)cnn2)cc1-c1ccnc(-c2cnn(C)n2)c1 [Example 141] |  |  |  |  |  |  |  | 100 to 500 nM |  | 500 to 1000 nM |  | 500 to 1000 nM | 500 to 1000 nM |  | 500 to 1000 nM |  | 100 to 500 nM | 
7 | Cc1ccc(NC(=O)c2cc(C(F)(F)F)cnn2)cc1-c1ccnc(-c2cnn(C)c2)c1 [Example 114] |  |  |  |  |  |  |  | 100 to 500 nM |  | 100 to 500 nM |  | 100 to 500 nM | 100 to 500 nM |  | 100 to 500 nM |  | < 100 nM | 
8 | Cc1ccc(NC(=O)c2cc(C3CC3)cnn2)cc1-c1cc(NCCO)nc(-c2ccnc(NC(=O)C3CC3)c2)c1 [Example 100] |  |  |  |  |  |  |  | < 100 nM |  | 100 to 500 nM |  | < 100 nM | < 100 nM |  | 100 to 500 nM |  | < 100 nM | 
9 | CCn1cc(-c2cc(-c3cc(NC(=O)c4cc(C(F)(F)F)cnn4)ccc3C)ccn2)cn1 [Example 115] |  |  |  |  |  |  |  | 100 to 500 nM |  | 100 to 500 nM |  | 100 to 500 nM | 100 to 500 nM |  | 100 to 500 nM |  | 100 to 500 nM | 
10 | Cc1ccc(NC(=O)c2cc(C(F)(F)F)cnn2)cc1-c1ccnc(-c2ccnc(NC(=O)C3(F)CC3)c2)c1 [Example 4, N-(3-(2′-(1-fluorocyclopropane-1-carboxamido)-[2,4′-bipyridin]-4-yl)-4-methylphenyl)-5-(trifluoromethyl)pyridazine-3-carboxamide] |  |  |  |  |  |  |  | < 100 nM |  | 100 to 500 nM |  | 100 to 500 nM | 100 to 500 nM |  | 100 to 500 nM |  | < 100 nM | 
11 | Cc1ccc(NC(=O)c2cncc(C(F)(F)F)c2)cc1-c1cncc(-c2cc(NC(=O)C3CC3)ncn2)c1 [Example 66] |  |  |  |  |  |  | > 100000 nM | < 100 nM | < 100 nM | 100 to 500 nM | 100 to 500 nM | 500 to 1000 nM | < 100 nM | < 100 nM | < 100 nM | < 100 nM | < 100 nM | < 100 nM
12 | Cc1ccc(NC(=N)c2cc(C3CC3)cnn2)cc1-c1ccnc(-c2ccnc(NC(=O)C3CC3)c2)c1 [Example 87] |  |  |  |  |  |  |  | < 100 nM |  | 1000 to 10000 nM |  | 1000 to 10000 nM | 1000 to 10000 nM |  | 1000 to 10000 nM |  | < 100 nM | 
13 | Cc1ccc(NC(=O)c2cncc(C(F)(F)F)n2)cc1-c1cncc(-c2ccnc(NC(=O)C3CC3)c2)c1 [Example 5] |  |  |  |  |  |  |  | < 100 nM |  | 1000 to 10000 nM |  | 1000 to 10000 nM | 1000 to 10000 nM |  | 1000 to 10000 nM |  | < 100 nM | 
14 | Cc1ccc(NC(=O)c2cc(C(C)C)cnn2)cc1-c1cncc(-c2ccnc(NC(=O)C3CC3)c2)c1 [Example 55] |  |  |  |  |  |  |  | < 100 nM |  | 500 to 1000 nM |  | 1000 to 10000 nM | < 100 nM |  | 100 to 500 nM |  | < 100 nM | 
15 | O=C(Nc1ccc(F)c(-c2ccnc(-c3ccnc(NC(=O)C4CC4)c3)c2)c1)c1cc(C(F)(F)F)cnn1 [Example 47] |  |  |  |  |  |  |  | < 100 nM |  | 1000 to 10000 nM |  | 1000 to 10000 nM | 1000 to 10000 nM |  | 1000 to 10000 nM |  | < 100 nM | 
16 | Cc1ccc(NC(=O)c2cncc(C(C)(C)C#N)c2)cc1-c1cncc(-c2ccnc(NC(=O)C3CC3)c2)n1 [Example 108] |  |  |  |  |  |  |  | < 100 nM |  | 100 to 500 nM |  | 1000 to 10000 nM | < 100 nM |  | 100 to 500 nM |  | < 100 nM | 
17 | Cc1ccc(NC(=O)c2cc(C(F)(F)F)cnn2)cc1-c1ccnc(-c2ccnc(/N=C/N(C)C)c2)c1 [Example 37, (E)-N-(3-(2′-(((dimethylamino)methylene)amino)-[2,4′-bipyridin]-4-yl)-4-methylphenyl)-5-(trifluoromethyl)pyridazine-3-carboxamide] |  |  |  |  |  |  |  | < 100 nM |  | < 100 nM |  | < 100 nM | 100 to 500 nM |  | 1000 to 10000 nM |  | < 100 nM | 
18 | Cc1ccc(NC(=O)c2cc(Br)cnn2)cc1-c1ccnc(-c2ccnc(NC(=O)C3CC3)c2)c1 [Example 130] |  |  |  |  |  |  |  | < 100 nM |  | 100 to 500 nM |  | 500 to 1000 nM | 500 to 1000 nM |  | 1000 to 10000 nM |  | < 100 nM | 
19 | Cc1ccc(NC(=O)c2ccnc(C(C)(C)F)c2)cc1-c1ccnc(-c2ccnc(NC(=O)C3CC3)c2)c1 [reference compound] | > 100000 nM | < 100 nM | 1000 to 10000 nM | 100 to 500 nM | 500 to 1000 nM | < 100 nM |  |  |  |  |  |  |  |  |  |  |  | 
20 | Cc1ccc(NC(=O)c2cc(C3CC3)cnn2)cc1-c1cc(OCCO)nc(-c2ccnc(NC(=O)C3CC3)c2)c1 [Example 104] |  |  |  |  |  |  |  | < 100 nM |  | 500 to 1000 nM |  | 100 to 500 nM | 100 to 500 nM |  | 100 to 500 nM |  | < 100 nM | 
21 | Cc1ccc(NC(=O)c2cc(C(F)(F)F)cnn2)cc1-c1ccnc(-c2ccnc(NC(=O)C3(C)CC3)c2)c1 [Example 41] |  |  |  |  |  |  |  | 100 to 500 nM |  | 100 to 500 nM |  | < 100 nM | 100 to 500 nM |  | 1000 to 10000 nM |  | < 100 nM | 
22 | Cc1ccc(NC(=O)c2cc(C(F)(F)F)cnn2)cc1-c1ccnc(-c2ccnc(NC(=O)C3CCC3)c2)c1 [Example 8] |  |  |  |  |  |  |  | < 100 nM |  | 100 to 500 nM |  | < 100 nM | 100 to 500 nM |  | < 100 nM |  | < 100 nM | 
